Publication PMC12040169 (PLOS Biology, 2025)

Assay: in vitro
Conditions: human, hela cells, % viability

| SMILES | viability at 28.5 h, 10 µM |
| --- | --- |
| Cc1ccccc1-c1ccc(C(=O)NC2CCCCC2)c(NCc2cccnc2)n1 [CBK076159] | 90.5% |
| CN(C)CCN(C)C(=O)c1ccc(-c2cc3ccccc3o2)nc1NCc1cccnc1 [CBK076160] | 90.8% |
| COCCOCN1C(=O)CC2(C1=O)C(=O)N(CC(=O)O)c1ccc(F)cc12 (stereo not shown) [CBK076163] | 90.5% |
| Cc1ccccc1-c1ccc(C(=O)Nc2ccc3c(c2)OCO3)c(N2CCN(C(=O)c3ccco3)CC2)n1 [CBK076196] | 101% |
| CS(=O)(=O)c1cccc(-c2cnc(NCCOc3ccccc3)c(C(=O)NCCc3ccccc3)c2)c1 [CBK076201] | 96.5% |
| O=C(NCCN1CCOCC1)c1cc(Br)cnc1N1CCOCC1 [CBK076202] | 104% |
| COc1ccc(OCCNC(=O)c2ccc(-c3ccccc3C)nc2N2CCN(C(=O)c3ccco3)CC2)cc1 [CBK076207] | 85.6% |
| CCN1CCCC1CNC(=O)c1cc(Br)cnc1N1CCOCC1 (stereo not shown) [CBK076213] | 87.1% |
| O=C(NCCc1c[nH]c2ccccc12)c1cc(Br)cnc1N1CCOCC1 [CBK076224] | 91.7% |
| NS(=O)(=O)c1ccc(CCNC(=O)c2cc(Br)cnc2N2CCOCC2)cc1 [CBK076225] | 85.1% |
| CC(=O)NCCNC(=O)c1cc(Br)cnc1NCCOc1ccccc1 [CBK076232] | 103% |
| O=C(NCc1ccc(F)cc1)c1cc(Br)cnc1N1CCOCC1 [CBK076246] | 89.1% |
| O=C(NCc1ccco1)c1cc(Br)cnc1N1CCOCC1 [CBK076268] | 94.6% |
| COc1ccc(-c2cnc(NCC3CC3)c(C(=O)NCc3ccco3)c2)cc1 [CBK076283] | 96.3% |
| COCCNC(=O)c1cc(-c2cccc(N(C)C)c2)cnc1NCC1CC1 [CBK076288] | 93.9% |
| CNC(=O)c1cccc(NC(=O)c2cc(-c3cccnc3)cnc2NCc2ccc3c(c2)OCO3)c1 [CBK076291] | 89.4% |
| Cc1ccc(C(=O)NCCN2CCOCC2)c(N2CCN(C(=O)c3ccco3)CC2)n1 [CBK076312] | 101% |
| COc1ccc(-c2cnc(NCC3CC3)c(C(=O)N3CCN(C)CC3)c2)cc1 [CBK076327] | 96.6% |
| COc1ccc(-c2cnc(NCCOc3ccccc3)c(C(=O)NCC3COc4ccccc4O3)c2)cc1 (stereo not shown) [CBK076332] | 97.2% |
| CN(C)C(=O)c1cc(-c2cccc(N(C)C)c2)cnc1NCC1CC1 [CBK076333] | 85.1% |
| Cc1ccc(C(=O)NCCc2ccc(S(N)(=O)=O)cc2)c(N2CCN(C(=O)c3ccco3)CC2)n1 [CBK076345] | 89% |
| COc1ccc(-c2cnc(NCC3CC3)c(C(=O)NCCc3c[nH]c4ccccc34)c2)cc1 [CBK076349] | 96.4% |

| SMILES | viability at 28.5 h, 10 µM |
| --- | --- |
| CC(=O)NCCNC(=O)c1cc(-c2cccc(S(C)(=O)=O)c2)cnc1NCC1CC1 [CBK076351] | 93.9% |
| Cc1ccc(C(=O)NCC2COc3ccccc3O2)c(N2CCN(C(=O)c3ccco3)CC2)n1 (stereo not shown) [CBK076356] | 93.9% |
| CS(=O)(=O)c1cccc(-c2cnc(NCC3CC3)c(C(=O)Nc3ccc4c(c3)OCO4)c2)c1 [CBK076362] | 95.2% |
| Cc1ccc(C(=O)NNCc2ccccc2)c(NCc2cccnc2)n1 [CBK076369] | 88.6% |
| Cc1ccc(C(=O)NCCN2CCOCC2)c(NCCCn2ccnc2)n1 [CBK076371] | 115% |
| Cc1ccc(C(=O)Nc2ccc3c(c2)OCO3)c(N2CCOCC2)n1 [CBK076377] | 92.9% |
| CN(C)C(=O)c1cc(Br)cnc1NCCCn1ccnc1 [CBK076378] | 98% |
| COc1ccc(S(=O)(=O)NCCNC(=O)c2cc(-c3cccnc3)cnc2NCc2ccc3c(c2)OCO3)cc1 [CBK076379] | 101% |
| CCN1CCCC1CNC(=O)c1ccc(C)nc1NCCCn1ccnc1 (stereo not shown) [CBK076382] | 90.7% |
| Cc1ccc(C(=O)NCc2ccco2)c(NCc2cccnc2)n1 [CBK076383] | 102% |
| Cc1ccc(C(=O)NC2CCCCC2)c(N2CCOCC2)n1 [CBK076388] | 96.5% |
| C=C(C)CNC(=O)c1ccc(C)nc1N1CCN(C(=O)c2ccco2)CC1 [CBK076401] | 94.8% |
| O=C(NCc1ccc(F)cc1)c1cc(Br)cnc1NCc1cccnc1 [CBK076405] | 104% |
| Cc1ccc(C(=O)NCc2ccco2)c(N2CCOCC2)n1 [CBK076410] | 89.9% |
| COc1ccc(S(=O)(=O)NCCNC(=O)c2ccc(-c3cccc(Cl)c3Cl)nc2NCc2cccnc2)cc1 [CBK076436] | 116% |
| COc1ccc(-c2cnc(NCC3CC3)c(C(=O)NCc3ccccc3SC)c2)cc1 [CBK076437] | 110% |
| O=C(NC1CCCCC1)c1cc(Br)cnc1NCc1cccnc1 [CBK076439] | 91% |
| Cc1ccc(C(=O)NCc2cccnc2)c(N2CCN(C(=O)c3ccco3)CC2)n1 [CBK076444] | 83.9% |
| COc1ccc(OCCNC(=O)c2cc(Br)cnc2N(C)C(C)=O)cc1 [CBK076467] | 104% |
| CS(=O)(=O)Nc1ncc(-c2ccco2)cc1C(=O)NCc1nc2ccccc2[nH]1 [CBK076468] | 103% |
| CN(C)C(=O)c1cc(-c2ccccc2)cnc1N(C)S(C)(=O)=O [CBK076473] | 105% |
| COc1ccc(S(=O)(=O)NCCNC(=O)c2cc(Br)cnc2N(C)S(C)(=O)=O)cc1 [CBK076477] | 110% |

| SMILES | viability at 28.5 h, 10 µM |
| --- | --- |
| CS(=O)(=O)Nc1ncc(-c2ccco2)cc1C(=O)NCc1ccc(F)cc1 [CBK076479] | 112% |
| CS(=O)(=O)Nc1ncc(-c2ccco2)cc1C(=O)Nc1ccon1 [CBK076512] | 89.6% |
| CCN1CCCC1CNC(=O)c1cc(Br)cnc1N(C)C(C)=O (stereo not shown) [CBK076524] | 85.2% |
| CC(=O)N(C)c1ncc(Br)cc1C(=O)N(C)C [CBK076533] | 97.1% |
| CS(=O)(=O)Nc1ncc(Br)cc1C(=O)NCc1ccc(F)cc1 [CBK076538] | 89.6% |
| COc1ccc(-c2cnc(NS(C)(=O)=O)c(C(=O)NCc3ccco3)c2)cc1 [CBK076539] | 94.9% |
| CC(=O)N(C)c1ncc(Br)cc1C(=O)NCCc1ccccc1 [CBK076543] | 93.8% |
| COCCNc1nc(-c2ccccc2CO)ccc1C(=O)NCCNC(C)=O [CBK076548] | 101% |
| O=C(NCC(F)(F)F)c1ccc(-c2ccccc2)nc1NCc1cccnc1 [CBK076551] | 95% |
| CC(=O)N(C)c1ncc(Br)cc1C(=O)NCC1COc2ccccc2O1 (stereo not shown) [CBK076558] | 91.7% |
| COCCNC(=O)c1ccc(-c2ccccc2CO)nc1N1CCOCC1 [CBK076559] | 97.6% |
| C=CCNC(=O)c1ccc(-c2cccc(N(C)C)c2)nc1NCc1cccnc1 [CBK076566] | 91.3% |
| CS(=O)(=O)Nc1ncc(-c2ccco2)cc1C(=O)NCCc1c[nH]c2ccccc12 [CBK076569] | 90.5% |
| CC(=O)N(C)c1nc(-c2cccc(N(C)C)c2)ccc1C(=O)NCCc1ccc(S(N)(=O)=O)cc1 [CBK076578] | 88.8% |
| CC(=O)N(C)c1nc(-c2cccc(N(C)C)c2)ccc1C(=O)NC1CCS(=O)(=O)C1 (stereo not shown) [CBK076590] | 103% |
| CN(C)CCN(C)C(=O)c1ccc(-c2ccccc2CO)nc1N(C)C [CBK076591] | 95% |
| CC(=O)Nc1cccc(-c2cnc(N(C)S(C)(=O)=O)c(C(=O)NCc3ccc4c(c3)CCO4)c2)c1 [CBK076609] | 99.7% |
| CC(=O)c1ccccc1-c1ccc(C(=O)N2CCN(C)CC2)c(NCC2CC2)n1 [CBK076613] | 92.8% |
| CC(=O)c1ccc(-c2ccc(C(=O)NCCc3ccc(S(N)(=O)=O)cc3)c(N(C)C(C)=O)n2)s1 [CBK076621] | 91.9% |
| CC(=O)c1ccc(-c2ccc(C(=O)NCC3COc4ccccc4O3)c(N(C)C(C)=O)n2)s1 (stereo not shown) [CBK076637] | 114% |
| CCC1CCCCN1C(=O)c1ccc(C(C)(C)C)cc1 (stereo not shown) [CBK076644] | 103% |
| CCC1CCCCN1C(=O)c1nc2ccccc2s1 (stereo not shown) [CBK076645] | 101% |

| SMILES | viability at 28.5 h, 10 µM |
| --- | --- |
| COc1ccc([C@@]23CC[C@@H](NC(=O)c4ccc5c(c4)OC(F)(F)O5)C[C@@H]2N(C)CC3)cc1OC [CBK076658T] | 108% |
| CCSc1nnc(-c2cccnc2)n1Cc1ccccc1 [CBK076664] | 84.4% |
| CSc1nnc(-c2ccccc2O)n1CCc1ccccc1 [CBK076668] | 96.8% |
| COc1ccc(C(NC(=O)[C@H]2CCCN2C(=O)COc2ccccc2)c2ccccc2C)cn1 (stereo partly shown) [CBK076682] | 96.1% |
| CCC1CCCCN1C(=O)c1cncc(Br)c1 (stereo not shown) [CBK076699] | 107% |
| CCSc1nnc(-c2ccc([N+](=O)[O-])cc2)n1CC(C)C [CBK076724T] | 108% |
| COc1ccc2[nH]c3c(c2c1)CCN(C(=O)CNCc1ccc(OC)c(OC)c1)C31CCN(CCOc2ccccc2)C1 (stereo not shown) [CBK076736T] | 75% |
| CCC1CCCCN1C(=O)c1cccc(C)n1 (stereo not shown) [CBK076750] | 92.4% |
| CCC1(CC)C(=O)N=C(C(C)(C)C)NC1=O [CBK076759] | 88.8% |
| CSc1nnc(-c2cccc(C)c2)n1CC(C)C [CBK076764T] | 89.1% |
| COc1ncccc1C(NC(=O)C1CCN(C(=O)OCc2ccccc2)CC1)c1ccccc1C (stereo not shown) [CBK076802] | 90.8% |
| O=C(Nc1ccsc1C(=O)O)c1ccc(Cl)cc1 [CBK076902] | 96.8% |
| CC(C)(C)OC(=O)N1CCC(CNS(=O)(=O)c2ccc3c(c2)OCCO3)CC1 [CBK076971] | 90.6% |
| O=S(=O)(Nc1ccccc1N1CCCCC1)c1ccc(Cl)cc1 [CBK077063] | 100% |
| CCOC(=O)c1sc(NS(=O)(=O)c2ccc(Cl)c(Cl)c2)nc1C [CBK077228] | 92.5% |
| O=C(O)CCSC(CC(=O)c1ccccc1)c1ccc(Cl)cc1 (stereo not shown) [CBK077251] | 97.3% |
| COc1ccc(S(=O)(=O)N2CCCCC2C(=O)O)cc1 (stereo not shown) [CBK077424] | 99.5% |
| CCOc1cc(/C=c2/sc3nc(=O)c(Cc4ccccc4)nn3c2=O)ccc1OC(C)=O [CBK077455] | 89.2% |
| Cc1ccc(Cn2ncc3c(NCCCN4CCOCC4)ncnc32)cc1 [CBK077470] | 94.4% |
